Assay results as given in US20250161232A1, “RETINOL FORMULATION (VI)” (DSM IP Assets B.V., priority 2022, published 2025).

Experiment: Storage stability of retinol formulations at 40° C. (retinol content after storage)
Assay type: physicochemical
Details: storage at 40° C.
Description: To determine the stability of these formulations, they were stored (at 40° C.) for 2 weeks and 12 weeks. And the loss of retinol was measure (the initial value was 100%).

Question: With `CC1=C(/C=C/C(C)=C/C=C/C(C)=C/CO)C(C)(C)CCC1` [retinol, Retinol] as the compound, how does the “cis/trans ratio of the retinol during storage (in words)” value read?
Answer: stable
